Source: patent publication US12257243B2, “5-hydroxy-7-oxabicyclo[2.2.1]heptane-2-carboxamide derivatives for inducing chondrogenesis for treating joint damage” (NOVARTIS AG, priority 2018, dated 2025)
Where two headings read alike, the source gives them in different places.

System: ALP in normal human articular chondrocytes (NHACs)
Assay: Alkaline Phosphatase (ALP) activity assay (staining and quantitation) in NHACs, prevention of chondrocyte hypertrophy
Assay type: cell-based
Conditions: human IL-1 beta 10 ng/mL, 12 days; for IC50: Fast Blue RR staining, high content imaging, read-out: ALP in NHAC IC50; for Emax / ALP in NHAC (% Efficacy): value in parentheses; for Emax: read-out: ALP in NHAC (% Efficacy)
How it was run: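 Hypertrophy readout: ALP staining (Fast Blue RR with naphthol AS-MX phosphate) plus Hoechst, imaged at 561 nm and/or quantified by high-content multiwavelength cell scoring. Before staining, NHACs (7,500/well, DMEM/10% FBS) were exposed to compound for 5 h, then cultured with 10 ng/mL IL-1β for 12 days at 37 °C.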

| Structure (SMILES) | IC50 (Chondrocyte, 288 h) [µM] | Emax (Chondrocyte, 288 h) [%] | IC50 [µM] | ALP in NHAC (% Efficacy) [%] |
| --- | --- | --- | --- | --- |
| O=C(Nc1cc(Cl)cc(C(F)(F)F)c1)[C@@H]1[C@@H](c2cccc(C(F)(F)F)c2)[C@H]2O[C@@H]1C[C@@H]2O (racemic) [Example 19, rac-(1R,2R,3S,4R,5)-N-(3-chloro-5-(trifluoromethyl)phenyl)-5-hydroxy-3-(3-(trifluoromethyl)phenyl)-7-oxabicyclo[2.2.1]heptane-2-carboxamide] | 11 | 102 | – | – |
| O=C(Nc1ccc(Cl)c(C(F)(F)F)c1)[C@@H]1[C@@H](c2cccc(C(F)(F)F)c2)[C@H]2O[C@@H]1C[C@@H]2O (racemic) [Example 18, rac-(1R,2R,3S,4R,5)-N-(4-chloro-3-(trifluoromethyl)phenyl)-5-hydroxy-3-(3-(trifluoromethyl)phenyl)-7-oxabicyclo[2.2.1]heptane-2-carboxamide] | 8 | 102 | – | – |
| Cn1cc([C@H]2[C@H]3O[C@H](C[C@@H]3O)[C@@H]2C(=O)Nc2cc(C(F)(F)F)c(Cl)cn2)c(C(F)(F)F)n1 (single isomer, unassigned) [Example 36b, (1R 2R,3S,4R,5S)—N-(5-chloro-4-(trifluoromethyl)pyridin-2-yl)-5-hydroxy-3-(1-methyl-3-(trifluoromethyl)-1H-pyrazol-4-yl)-7-oxabicyclo[2.2.1]heptane-2-carboxamide or (1S,2S,3R,4S,5R)—N-(5-chloro-4-(trifluoromethyl)pyridin-2-yl)-5-hydroxy-3-(1-methyl-3-(trifluoromethyl)-1H-pyrazol-4-yl)-7-oxabicyclo[2.2.1]heptane-2-carboxamide] | – | – | 17 | 83 |
| Cn1cc([C@H]2[C@H]3O[C@H](C[C@@H]3O)[C@@H]2C(=O)Nc2cc(C(F)(F)F)ccc2F)c(C(F)(F)F)n1 (racemic) [Example 52, rac-(1R,2R,3S,4R,5S)—N-(2-fluoro-5-(trifluoromethyl)phenyl)-5-hydroxy-3-(1-methyl-3-(trifluoromethyl)-1H-pyrazol-4-yl)-7-oxabicyclo[2.2.1]heptane-2-carboxamide] | 4.2 | 73 | – | – |
| Cc1ccc(NC(=O)[C@@H]2[C@@H](c3cn(C(C)C)nc3C(F)(F)F)[C@H]3O[C@@H]2C[C@@H]3O)cc1C(F)(F)F (racemic) [Example 89, rac-(1R,2R,3S,4R,5S)-5-hydroxy-3-(1-isopropyl-3-trifluoromethyl)-1H-pyrazol-4-yl)-N-(4-methyl-3-(trifluoromethyl)phenyl)-7-oxabicyclo[2.2.1]heptane-2-carboxamide] | 19 | 40 | – | – |
| Cn1nc(C(F)(F)F)cc1[C@H]1[C@H]2O[C@H](C[C@@H]2O)[C@@H]1C(=O)Nc1cc(C(F)(F)F)ccc1C#N (racemic) [Example 72, rac-(1R,2R,3S,4R,5S)—N-(2-cyano-5-(trifluoromethyl)phenyl)-5-hydroxy-3-(1-methyl-3-(trifluoromethyl)-1H-pyrazol-5-yl)-7-oxabicyclo[2.2.1]heptane-2-carboxamide] | 2.1 | 72 | – | – |
| COc1ccc(C(F)(F)F)cc1NC(=O)[C@H]1[C@H](c2cn(C)nc2C(F)(F)F)[C@@H]2O[C@H]1C[C@H]2O (single isomer, unassigned) [Example 33a, (1R,2R,3S,4R,5S)-5-hydroxy-N-(2-methoxy-5-trifluoromethyl)phenyl)-3-(1-methyl-3-(trifluoromethyl)-1H-pyrazol-4-L)-7-oxabicyclo[2.2.1]heptane-2-carboxamide or (1S,2S,3R,4S,5R)-5-hydroxy-N-(2-methoxy-5-(trifluoromethyl)phenyl)-3-(1-methyl-3-(trifluoromethyl)-1H-pyrazol-4-L)-7-oxabicyclo[2.2.1]heptane-2-carboxamide] | – | – | 6.6 | 79 |
